≈ marks a conversion by molar mass, not a printed value. Calls of active or inactive are those of the source. No cut-off for these calls is given here.
Assays:
Nakaseomyces glabratus = experiment: Antifungal activity against Candida glabrata ATCC 0001 assessed as reduction in fungal growth by NCCLS method; format: functional
Candida tropicalis = experiment: Antifungal activity against Candida tropicalis ATCC 1369 assessed as reduction in fungal growth by NCCLS method; format: functional
Aspergillus fumigatus = experiment: Antifungal activity against Aspergillus fumigatus KM8001 assessed as reduction in fungal growth by NCCLS method; format: functional
Pichia kudriavzevii = experiment: Antifungal activity against Candida krusei ATCC 6258 assessed as reduction in fungal growth by NCCLS method; format: functional
Candida albicans [1] = experiment: Antifungal activity against Candida albicans ATCC 10231 assessed as reduction in fungal growth by NCCLS method; format: functional
[2] = target: T1, Squalene epoxidase ERG1 (Candida albicans) (UniProt Q92206); experiment: Inhibition of SE in Candida albicans ATCC SC5314 assessed as inhibition of ergosterol biosynthesis by measuring unknown sterol content at 0.5 ug/ml incubated for 16 hrs by LC-MS analysis; set-up: scale not given: the % may be the effect or the level left
T1 sequence (whole entry): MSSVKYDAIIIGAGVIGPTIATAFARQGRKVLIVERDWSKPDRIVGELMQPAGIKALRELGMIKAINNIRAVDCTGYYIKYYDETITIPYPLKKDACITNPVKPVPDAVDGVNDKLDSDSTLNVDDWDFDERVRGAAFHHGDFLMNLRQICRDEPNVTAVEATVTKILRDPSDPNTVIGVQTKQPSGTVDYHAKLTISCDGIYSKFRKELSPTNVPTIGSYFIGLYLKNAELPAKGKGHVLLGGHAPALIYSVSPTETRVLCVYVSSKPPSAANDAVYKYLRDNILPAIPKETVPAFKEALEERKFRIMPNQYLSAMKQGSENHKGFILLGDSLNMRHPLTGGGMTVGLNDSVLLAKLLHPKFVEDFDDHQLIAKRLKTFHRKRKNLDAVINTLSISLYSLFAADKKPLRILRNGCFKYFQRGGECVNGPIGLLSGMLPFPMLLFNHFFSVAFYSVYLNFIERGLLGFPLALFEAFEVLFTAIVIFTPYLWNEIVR

[3] = target: T1, Squalene epoxidase ERG1 (Candida albicans); experiment: Inhibition of SE in Candida albicans ATCC SC5314 assessed as inhibition of ergosterol biosynthesis by measuring eburicol content at 0.5 ug/ml incubated for 16 hrs by LC-MS analysis; set-up: scale not given: the % may be the effect or the level left
[4] = target: T1, Squalene epoxidase ERG1 (Candida albicans); experiment: Inhibition of SE in Candida albicans ATCC SC5314 assessed as inhibition of ergosterol biosynthesis by measuring unknown sterol content at 0.125 ug/ml incubated for 16 hrs by LC-MS analysis; set-up: scale not given: the % may be the effect or the level left
Candida albicans [5] = experiment: Antifungal activity against fluconazole-resistant Candida albicans 904 assessed as reduction in fungal growth by NCCLS method; format: functional
[6] = target: T1, Squalene epoxidase ERG1 (Candida albicans); experiment: Inhibition of SE in Candida albicans ATCC SC5314 assessed as inhibition of ergosterol biosynthesis by measuring ergosterol content at 0.5 ug/ml incubated for 16 hrs by LC-MS analysis; set-up: scale not given: the % may be the effect or the level left
Candida albicans [7] = experiment: Antifungal activity against fluconazole-resistant Candida albicans 901 assessed as reduction in fungal growth by NCCLS method; format: functional
[8] = target: T1, Squalene epoxidase ERG1 (Candida albicans); experiment: Inhibition of SE in Candida albicans ATCC SC5314 assessed as inhibition of ergosterol biosynthesis by measuring eburicol content at 4 ug/ml incubated for 16 hrs by LC-MS analysis; set-up: scale not given: the % may be the effect or the level left
Candida albicans [9] = experiment: Antifungal activity against fluconazole-resistant Candida albicans 632 assessed as reduction in fungal growth by NCCLS method; format: functional
Candida albicans [10] = experiment: Antifungal activity against fluconazole-resistant Candida albicans 17# assessed as reduction in fungal growth by NCCLS method; format: functional
[11] = target: T1, Squalene epoxidase ERG1 (Candida albicans); experiment: Inhibition of SE in Candida albicans ATCC SC5314 assessed as inhibition of ergosterol biosynthesis by measuring increase in squalene content at 0.5 ug/ml incubated for 16 hrs by LC-MS analysis relative to control; set-up: scale not given: the % may be the effect or the level left
[12] = target: T1, Squalene epoxidase ERG1 (Candida albicans); experiment: Inhibition of SE in Candida albicans ATCC SC5314 assessed as inhibition of ergosterol biosynthesis by measuring ergosterol content at 4 ug/ml incubated for 16 hrs by LC-MS analysis; set-up: scale not given: the % may be the effect or the level left
[13] = target: T1, Squalene epoxidase ERG1 (Candida albicans); experiment: Inhibition of SE in Candida albicans ATCC SC5314 assessed as inhibition of ergosterol biosynthesis by measuring unknown sterol content at 4 ug/ml incubated for 16 hrs by LC-MS analysis; set-up: scale not given: the % may be the effect or the level left
[14] = target: T1, Squalene epoxidase ERG1 (Candida albicans); experiment: Inhibition of SE in Candida albicans ATCC SC5314 assessed as inhibition of ergosterol biosynthesis by measuring ergosterol content at 0.125 ug/ml incubated for 16 hrs by LC-MS analysis; set-up: scale not given: the % may be the effect or the level left
[15] = target: T1, Squalene epoxidase ERG1 (Candida albicans); experiment: Inhibition of SE in Candida albicans ATCC SC5314 assessed as inhibition of ergosterol biosynthesis by measuring increase in squalene content at 4 ug/ml incubated for 16 hrs by LC-MS analysis relative to control; set-up: scale not given: the % may be the effect or the level left
Candida albicans [16] = experiment: Antifungal activity against fluconazole-resistant Candida albicans CaR assessed as reduction in fungal growth by NCCLS method; format: functional
[17] = target: T1, Squalene epoxidase ERG1 (Candida albicans); experiment: Inhibition of SE in Candida albicans ATCC SC5314 assessed as inhibition of ergosterol biosynthesis by measuring increase in squalene content at 0.125 ug/ml incubated for 16 hrs by LC-MS analysis relative to control; set-up: scale not given: the % may be the effect or the level left
[18] = Stability in human plasma assessed as compound remaining incubated for 120 mins; format: ADME, cell-free; settings: read-out: Stability
[19] = Stability in human plasma assessed as compound remaining incubated for 60 mins; format: ADME, cell-free; settings: read-out: Stability
Candida albicans [20] = experiment: Antifungal activity against Candida albicans ATCC SC5314 assessed as cell membrane disruption at 4 ug/ml measured upto 48 hrs by TEM analysis; format: functional, organism-based
Candida albicans [21] = experiment: Antifungal activity against Candida albicans ATCC SC5314 assessed as exudation of internal materials from cells at 4 ug/ml measured upto 48 hrs by TEM analysis; format: functional, organism-based
Candida albicans [22] = experiment: Antifungal activity against Candida albicans ATCC SC5314 assessed as reduction in fungal growth density at 5 and 50 nmol/ml; format: functional, organism-based
Candida albicans [23] = experiment: Antifungal activity against Candida albicans ATCC SC5314 assessed as cell wall disruption at 4 ug/ml measured upto 48 hrs by TEM analysis; format: functional, organism-based
Candida albicans [24] = experiment: Antifungal activity against Candida albicans ATCC SC5314 assessed as reduction in cell division at 4 ug/ml measured upto 48 hrs by TEM analysis; format: functional, organism-based

CN(CC(=O)Nc1ccccc1)C(=O)c1cccc2c1OCCO2
MIC (Nakaseomyces glabratus): 1 µg/mL (≈ 3.06 µM) | MIC (Candida tropicalis): 1 µg/mL (≈ 3.06 µM) | MIC (Aspergillus fumigatus): > 16 µg/mL | MIC (Pichia kudriavzevii): 0.5 µg/mL (≈ 1.53 µM) | MIC (Candida albicans [1]): 0.5 µg/mL (≈ 1.53 µM)

CN(CC(=O)NCc1ccccc1)C(=O)c1ccc2ccccc2c1
MIC (Nakaseomyces glabratus): 0.25 µg/mL (≈ 0.752 µM) | MIC (Candida tropicalis): 0.25 µg/mL (≈ 0.752 µM) | MIC (Aspergillus fumigatus): 8 µg/mL (≈ 24.1 µM) | MIC (Pichia kudriavzevii): 0.5 µg/mL (≈ 1.5 µM) | MIC (Candida albicans [1]): 0.5 µg/mL (≈ 1.5 µM)

CN(C/C=C/c1ccccc1)Cc1cccc2ccccc12 [NAFTIFINE]
Activity [2]: 4.9% | Activity [3]: 0.7% | MIC (Nakaseomyces glabratus): 0.5 µg/mL (≈ 1.74 µM) | Activity [4]: 1.6% | MIC (Candida albicans [5]): 8 µg/mL (≈ 27.8 µM) | Activity [6]: 62.9% | MIC (Candida albicans [7]): > 16 µg/mL | Activity [8]: 1.7% | MIC (Candida albicans [9]): 8 µg/mL (≈ 27.8 µM) | MIC (Candida albicans [10]): 8 µg/mL (≈ 27.8 µM) | MIC (Candida tropicalis): 0.5 µg/mL (≈ 1.74 µM) | MIC (Aspergillus fumigatus): > 16 µg/mL | Activity [11]: 31.5% | Activity [12]: 28.4% | Activity [13]: 5.4% | Activity [14]: 83.6% | MIC (Pichia kudriavzevii): 1 µg/mL (≈ 3.48 µM) | Activity [15]: 64.5% | MIC (Candida albicans [16]): 4 µg/mL (≈ 13.9 µM) | Activity [17]: 14.8% | MIC (Candida albicans [1]): 0.5 µg/mL (≈ 1.74 µM)

CN(CC(=O)NCc1ccccc1)C(=O)c1cccc2c1OCCO2
MIC (Nakaseomyces glabratus): 0.25 µg/mL (≈ 0.734 µM) | MIC (Candida albicans [5]): 8 µg/mL (≈ 23.5 µM) | MIC (Candida albicans [7]): > 16 µg/mL | MIC (Candida albicans [9]): > 16 µg/mL | MIC (Candida albicans [10]): > 16 µg/mL | remaining at 2 h [18]: 83.5% | MIC (Candida tropicalis): 0.5 µg/mL (≈ 1.47 µM) | MIC (Aspergillus fumigatus): 8 µg/mL (≈ 23.5 µM) | MIC (Pichia kudriavzevii): 0.25 µg/mL (≈ 0.734 µM) | remaining at 1 h [19]: 87.3% | MIC (Candida albicans [16]): 4 µg/mL (≈ 11.8 µM) | MIC (Candida albicans [1]): 0.25 µg/mL (≈ 0.734 µM)

CN(CC(=O)Nc1ccccc1)C(=O)c1cccc2ccccc12
MIC (Nakaseomyces glabratus): 0.5 µg/mL (≈ 1.57 µM) | MIC (Candida albicans [5]): > 16 µg/mL | MIC (Candida albicans [7]): 4 µg/mL (≈ 12.6 µM) | MIC (Candida albicans [9]): > 16 µg/mL | MIC (Candida albicans [10]): > 16 µg/mL | MIC (Candida tropicalis): 0.5 µg/mL (≈ 1.57 µM) | MIC (Aspergillus fumigatus): 8 µg/mL (≈ 25.1 µM) | MIC (Pichia kudriavzevii): 0.25 µg/mL (≈ 0.785 µM) | MIC (Candida albicans [16]): 8 µg/mL (≈ 25.1 µM) | MIC (Candida albicans [1]): 0.25 µg/mL (≈ 0.785 µM)

OC(Cn1cncn1)(Cn1cncn1)c1ccc(F)cc1F [FLUCONAZOLE]
MIC (Candida albicans [5]): > 16 µg/mL | MIC (Candida albicans [7]): > 16 µg/mL | MIC (Candida albicans [9]): > 16 µg/mL | MIC (Candida albicans [10]): > 16 µg/mL | MIC (Candida albicans [16]): > 16 µg/mL

CN(CC(=O)NCc1ccccc1)C(=O)c1cccc2ccccc12
Activity [2]: 5% | Activity [3]: 1.6% | MIC (Nakaseomyces glabratus): 0.25 µg/mL (≈ 0.752 µM) | Activity (Candida albicans [20]): Active | Activity (Candida albicans [21]): Active | Activity [4]: 2.8% | MIC (Candida albicans [5]): > 16 µg/mL | Activity [6]: 63.9% | MIC (Candida albicans [7]): 4 µg/mL (≈ 12 µM) | Activity [8]: 2.3% | MIC (Candida albicans [9]): 8 µg/mL (≈ 24.1 µM) | MIC (Candida albicans [10]): 4 µg/mL (≈ 12 µM) | Activity (Candida albicans [22]): Active | remaining at 2 h [18]: 91.6% | Activity (Candida albicans [23]): Active | MIC (Candida tropicalis): 0.5 µg/mL (≈ 1.5 µM) | MIC (Aspergillus fumigatus): 4 µg/mL (≈ 12 µM) | Activity [11]: 29.5% | Activity [12]: 31.7% | Activity [13]: 7.1% | Activity [14]: 87.4% | MIC (Pichia kudriavzevii): 0.125 µg/mL (≈ 0.376 µM) | remaining at 1 h [19]: 94.5% | Activity [15]: 58.9% | MIC (Candida albicans [16]): 4 µg/mL (≈ 12 µM) | Activity [17]: 9.8% | Activity (Candida albicans [24]): Active | MIC (Candida albicans [1]): 0.125 µg/mL (≈ 0.376 µM)

CN(CC(=O)Nc1ccccc1)C(=O)c1ccc2ccccc2c1
MIC (Nakaseomyces glabratus): 2 µg/mL (≈ 6.28 µM) | MIC (Candida tropicalis): 0.5 µg/mL (≈ 1.57 µM) | MIC (Aspergillus fumigatus): > 16 µg/mL | MIC (Pichia kudriavzevii): 1 µg/mL (≈ 3.14 µM) | MIC (Candida albicans [1]): 0.5 µg/mL (≈ 1.57 µM)

CN(CC(=O)Nc1ccccc1)C(=O)c1ccc2c(c1)OCCO2
MIC (Nakaseomyces glabratus): 0.5 µg/mL (≈ 1.53 µM) | MIC (Candida tropicalis): 0.5 µg/mL (≈ 1.53 µM) | MIC (Aspergillus fumigatus): 8 µg/mL (≈ 24.5 µM) | MIC (Pichia kudriavzevii): 2 µg/mL (≈ 6.13 µM) | MIC (Candida albicans [1]): 1 µg/mL (≈ 3.06 µM)

CN(CC(=O)NCc1ccccc1)C(=O)c1ccc2c(c1)OCCO2
MIC (Nakaseomyces glabratus): 2 µg/mL (≈ 5.88 µM) | MIC (Candida tropicalis): 0.5 µg/mL (≈ 1.47 µM) | MIC (Aspergillus fumigatus): > 16 µg/mL | MIC (Pichia kudriavzevii): 0.5 µg/mL (≈ 1.47 µM) | MIC (Candida albicans [1]): 0.5 µg/mL (≈ 1.47 µM)

Source: ChEMBL document CHEMBL4616696, “Construction and Evaluation of Molecular Models: Guide and Design of Novel SE Inhibitors” (ACS Med Chem Lett, 2020)
